Assay results: patent US9745291B2, “PRMT5 inhibitors containing a dihydro- or tetrahydroisoquinoline and uses thereof” (Epizyme, Inc., priority 2012, dated 2017)
Read-outs that look alike come from different tables or passages of the source.

Columns and labels:
Z-138 cell line = test: Z-138 Proliferation Assay (Cell Titer Glo, 5 days); type: cell-based; conditions: Z-138 cells
Excerpt: [formula] Z-138 Proliferation Assay
Z-138 suspension cells were purchased from ATCC (American Type Culture Collection, Manassas, Va.). RPMI/Glutamax medium, penicillin-streptomycin, heat inactivated fetal bovine serum were purchased from Life Technologies, Grand Island, N.Y., USA. V-bottom polypropylene 384-well plates were purchased from Greiner Bio-One, Monroe, N.C., USA. Cell culture 384-well white opaque plates were purchased from Perkin Elmer, Waltham, Mass., USA. Cell-Titer Glo® was purchased from Promega Corporation, Madison, Wis., USA. SpectraMax M5 plate reader was purchased from Molecular Devices LLC, Sunnyvale, Calif., USA.
Z-138 suspension cells were maintained in growth medium (RPMI 1640 supplemented with 10% v/v heat inactivated fetal bovine serum and cultured at 37° C. under 5% CO2 Under assay conditions, cells were incubated in assay medium (RPMI 1640 supplemented with 10% v/v heat inactivated fetal bovine serum and 100 units/mL penicillin-streptomycin) at 37° C. under 5% CO2.
For the assessment of the effect of compounds on the proliferation of the Z-138 cell line, exponentially growing cells were plated in 384-well white opaque plates at a density of 10,000 cells/ml in a final volume of 50 μl of assay medium. A compound source plate was prepared by performing triplicate nine-point 3-fold serial dilutions in DMSO, beginning at 10 mM (final top concentration of compound in the assay was 20 μM and the DMSO was 0.2%). A 100 nL aliquot from the compound stock plate was added to its respective well in the cell plate. […] After addition of compounds, assay plates were incubated for 5 days at 37° C., 5% CO2, relative humidity >90%.
Cell viability was measured by quantitation of ATP present in the cell cultures, adding 35 μl of Cell Titer Glo® reagent to the cell plates. Luminescence was read in the SpectraMax M5 microplate reader. The concentration of compound inhibiting cell viability by 50% was determined using a 4-parametric fit of the normalized dose response curves.

PRMT5/MEP50 = PRMT5/MEP50 (Homo sapiens (Human), UniProt O14744); test: PRMT5 Biochemical Assay (PRMT5/MEP50 enzyme assay on peptide substrate, 3H-SAM Flashplate)
[1] = system: symmetric di-methyl arginine in Z-138 cells; test: Z-138 Methylation Assay (In Cell Western for symmetric di-methyl arginine and DNA content); type: cell-based; conditions: read-out: ICW EC50
Excerpt: [formula] Where top and bottom are the normally allowed to float, but may be fixed at 100 or 0 respectively in a 3-parameter fit. The Hill Coefficient normally allowed to float but may also be fixed at 1 in a 3-parameter fit. Y is the % inhibition and X is the compound concentration. Z-138 Methylation Assay
Z-138 suspension cells were purchased from ATCC (American Type Culture Collection, Manassas, Va.). RPMI/Glutamax medium, penicillin-streptomycin, heat inactivated fetal bovine serum, and D-PBS were purchased from Life Technologies, Grand Island, N.Y., USA. Odyssey blocking buffer, 800CW goat anti-rabbit IgG (H+L) antibody, and Licor Odyssey infrared scanner were purchased from Licor Biosciences, Lincoln, Nebr., USA. Symmetric di-methyl arginine antibody was purchased from EMD Millipore, Billerica, Mass., USA. 16% Paraformaldehyde was purchased from Electron Microscopy Sciences, Hatfield, Pa., USA.
Z-138 suspension cells were maintained in growth medium (RPMI 1640 supplemented with 10% v/v heat inactivated fetal bovine serum and 100 units/mL penicillin-streptomycin) and cultured at 37° C. under 5% CO2.
Cell Treatment, in Cell Western (ICW) for Detection of Symmetric Di-Methyl Arginine and DNA Content.
Z-138 cells were seeded in assay medium at a concentration of 50,000 cells per mL to a 384-well cell culture plate with 50 μL per well. Compound (100 nL) from 384 well source plates was added directly to 384 well cell plate. Plates were incubated at 37° C., 5% CO2 for 96 hours. After four days of incubation, 40 μL of cells from incubated plates were added to poly-D-lysine coated 384 well culture plates (BD Biosciences 356697). Plates were incubated at room temperature for 30 minutes then incubated at 37° C., 5% CO2 for 5 hours. After the incubation, 40 μL per well of 8% paraformaldehyde in PBS (16% paraformaldahyde was diluted to 8% in PBS) was added to each plate and incubated for 30 minutes. Plates were transferred to a Biotek 405 plate washer and washed 5 times with 100 μL per well of wash buffer (1×PBS with 0.1% Triton X-100 (v/v)). Next 30 μL per well of Odyssey blocking buffer were added to each plate and incubated 1 hour at room temperature. Blocking buffer was removed and 20 μL per well of primary antibody was added (symmetric di-methyl arginine diluted 1:100 in Odyssey buffer with 0.1% Tween 20 (v/v)) and plates were incubated overnight (16 hours) at 4° C. Plates were washed 5 times with 100 μL per well of wash buffer. Next 20 μL per well of secondary antibody was added (1:200 800CW goat anti-rabbit IgG (H+L) antibody, 1:1000 DRAQ5 (Biostatus limited) in Odyssey buffer with 0.1% Tween 20 (v/v)) and incubated for 1 hour at room temperature. The plates were washed 5 times with 100 μL per well wash buffer then 1 time with 100 μL per well of water. Plates were allowed to dry at room temperature then imaged on the Licor Odyssey machine which measures integrated intensity at 700 nm and 800 nm wavelengths. Both 700 and 800 channels were scanned.
First, the ratio for each well was determined by:
Each plate included fourteen control wells of DMSO only treatment (minimum inhibition) as well as fourteen control wells for maximum inhibition treated with 3 μM of a reference compound (Background wells). The average of the ratio values for each control type was calculated and used to determine the percent inhibition for each test well in the plate. Reference compound was serially diluted three-fold in DMSO for a total of nine test concentrations, beginning at 3 μM. Percent inhibition was determined and IC50 curves were generated using triplicate wells per concentration of compound. […]

[2] = PRMT5 biochemical assay, read-out: Biochemical IC50
[3] = Homo sapiens, Z-138, Z-138 cells

Sequence of PRMT5/MEP50 (O14744 other isoform, or with tags, fused parts or gaps): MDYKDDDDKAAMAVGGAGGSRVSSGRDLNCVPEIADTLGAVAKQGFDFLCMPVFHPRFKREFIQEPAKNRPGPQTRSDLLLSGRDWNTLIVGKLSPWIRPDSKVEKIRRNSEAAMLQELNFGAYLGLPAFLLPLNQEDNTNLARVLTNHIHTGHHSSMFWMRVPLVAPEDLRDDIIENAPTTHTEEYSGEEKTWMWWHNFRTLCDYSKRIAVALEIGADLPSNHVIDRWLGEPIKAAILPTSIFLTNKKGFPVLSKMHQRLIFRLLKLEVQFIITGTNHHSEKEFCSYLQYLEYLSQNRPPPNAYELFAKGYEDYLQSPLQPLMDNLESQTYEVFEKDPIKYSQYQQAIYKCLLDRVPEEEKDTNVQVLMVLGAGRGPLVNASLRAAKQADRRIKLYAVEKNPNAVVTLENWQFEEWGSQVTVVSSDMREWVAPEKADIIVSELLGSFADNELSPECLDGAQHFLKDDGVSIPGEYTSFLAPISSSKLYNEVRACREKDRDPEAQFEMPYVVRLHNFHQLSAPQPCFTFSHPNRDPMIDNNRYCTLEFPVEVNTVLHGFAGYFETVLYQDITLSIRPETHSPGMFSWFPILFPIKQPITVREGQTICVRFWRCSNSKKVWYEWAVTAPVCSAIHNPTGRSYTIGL
Sequence of PRMT5/MEP50 (Q9BQA1 other isoform, or with tags, fused parts or gaps partner): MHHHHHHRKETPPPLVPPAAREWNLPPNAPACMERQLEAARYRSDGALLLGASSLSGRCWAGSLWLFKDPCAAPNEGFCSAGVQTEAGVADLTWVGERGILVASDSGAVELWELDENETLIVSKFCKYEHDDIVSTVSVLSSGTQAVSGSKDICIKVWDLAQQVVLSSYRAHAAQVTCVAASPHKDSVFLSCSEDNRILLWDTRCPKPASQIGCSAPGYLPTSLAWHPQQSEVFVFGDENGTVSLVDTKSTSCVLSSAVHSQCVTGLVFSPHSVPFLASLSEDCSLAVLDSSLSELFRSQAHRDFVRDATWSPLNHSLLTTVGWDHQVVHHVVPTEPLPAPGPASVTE

IC50 (PRMT5/MEP50; [2])	EC50 [1, 3]	Compound	EC50 (Z-138 cell line; Homo sapiens, Z-138, 120 h)	IC50 (PRMT5/MEP50)	EC50 (Z-138 cell line)	EC50 ([1]; Z-138 cells)
< 100 nM	101 to 1000 nM	O=C(COc1ccccc1C1CCCCN1)NC[C@H](O)CN1CCc2ccccc2C1 (stereo partly drawn) [Compound 253]	10000 to 50000 nM			
101 to 1000 nM	> 1000 nM	CC1NCCCC1c1ccccc1OCC(=O)NC[C@@H](O)CN1CCc2ccccc2C1 (stereo partly drawn) [Compound 254]	10000 to 50000 nM			
101 to 1000 nM	101 to 1000 nM	Cn1cncc1-c1cccc(OCC(=O)NC[C@@H](O)CN2CCc3ccccc3C2)c1 [Compound 255]	> 20000 nM			
101 to 1000 nM	101 to 1000 nM	Cn1cc(-c2ccccc2)nc1CCC(=O)NC[C@H](O)CN1CCc2ccccc2C1 [Compound 256]	> 20000 nM			
< 100 nM	< 100 nM	CN1CC(CN(C)S(=O)(=O)c2ccccc2OCC(=O)NC[C@@H](O)CN2CCc3ccccc3C2)C1 [Compound 257]	101 to 1000 nM			
101 to 1000 nM	101 to 1000 nM	CN1CCCCC1c1ccccc1OCC(=O)NCC(O)CN1CCc2ccccc2C1 (stereo not drawn) [Compound 258]	1000 to 10000 nM			
101 to 1000 nM	101 to 1000 nM	Cn1ccnc1CCC(=O)NC[C@H](O)CN1CCc2ccccc2C1 [Compound 259]	> 20000 nM			
< 100 nM	< 100 nM	CC(C)N(C)CCN(C)S(=O)(=O)c1ccccc1OCC(=O)NC[C@@H](O)CN1CCc2ccccc2C1 [Compound 260]	1000 to 10000 nM			
101 to 1000 nM	> 1000 nM	CS(=O)(=O)Nc1cccc(OCC(=O)NC[C@@H](O)CN2CCc3ccccc3C2)c1C1CCCNC1 (stereo partly drawn) [Compound 265]	> 20000 nM			
101 to 1000 nM	> 1000 nM	CC(C)N1CCCC(c2c(NS(C)(=O)=O)cccc2OCC(=O)NC[C@@H](O)CN2CCc3ccccc3C2)C1 (stereo partly drawn) [Compound 266]	> 20000 nM			
101 to 1000 nM	> 1000 nM	O=C(COc1cccc(C(=O)NCCc2ncc[nH]2)c1)NC[C@@H](O)CN1CCc2ccccc2C1 [Compound 267]	> 20000 nM			
< 100 nM	101 to 1000 nM	CN(C)C1CCN(S(=O)(=O)c2ccccc2OCC(=O)NC[C@@H](O)CN2CCc3ccccc3C2)C1 (stereo partly drawn) [Compound 273]	10000 to 50000 nM			
< 100 nM	< 100 nM	CN1CC[C@H](CN(C)S(=O)(=O)c2ccccc2OCC(=O)NC[C@@H](O)CN2CCc3ccccc3C2)C1 [Compound 274]	101 to 1000 nM			
< 100 nM	< 100 nM	CN1CCN(c2cccc(OCC(=O)NC[C@@H](O)CN3CCc4ccccc4C3)c2S(=O)(=O)N(C)C)CC1 [Compound 275]	< 100 nM			
< 100 nM	< 100 nM	CC1CN(c2cccc(OCC(=O)NC[C@@H](O)CN3CCc4ccccc4C3)c2S(=O)(=O)N(C)C)CCN1 (stereo partly drawn) [Compound 276]	< 100 nM			
< 100 nM	< 100 nM	CCN1CCN(c2cccc(OCC(=O)NC[C@@H](O)CN3CCc4ccccc4C3)c2S(=O)(=O)N(C)C)CC1 [Compound 277]	< 100 nM			
< 100 nM	< 100 nM	CN(C)S(=O)(=O)c1c(OCC(=O)NC[C@@H](O)CN2CCc3ccccc3C2)cccc1N1CCN(C2CC2)CC1 [Compound 278]	< 100 nM			

Compound	IC50 (PRMT5/MEP50; [2])	EC50 [1, 3]	EC50 (Z-138 cell line; Homo sapiens, Z-138, 120 h)	IC50 (PRMT5/MEP50)	EC50 (Z-138 cell line)	EC50 ([1]; Z-138 cells)
O=C(COc1ccccc1[C@H]1CCCNC1)NC[C@H](O)CN1CCc2ccccc2C1 [Compound 261]	< 100 nM	101 to 1000 nM	1000 to 10000 nM			
O=C(COc1ccccc1[C@@H]1CCCNC1)NC[C@H](O)CN1CCc2ccccc2C1 [Compound 262]	< 100 nM	101 to 1000 nM	10000 to 50000 nM			
O=C(COc1ccccc1[C@H]1CCCNC1)NC[C@@H](O)CN1CCc2ccccc2C1 [Compound 263]	101 to 1000 nM	101 to 1000 nM	10000 to 50000 nM			
O=C(COc1ccccc1[C@@H]1CCCNC1)NC[C@@H](O)CN1CCc2ccccc2C1 [Compound 264]	101 to 1000 nM	> 1000 nM	10000 to 50000 nM			
[2H]C1([2H])Cc2ccccc2C([2H])([2H])N1C[C@H](O)CNC(=O)COc1cccc2cccnc12 [Compound 269]		101 to 1000 nM	> 5000 nM	101 to 1000 nM		
O=C(COc1ccccc1N1CCNCC1)NC[C@H](O)CN1CCc2ccccc2C1 [Compound 271]	< 100 nM	< 100 nM	1000 to 10000 nM			
N-(3-(3,4-dihydroisoquinolin-2(1H)-yl)-2-hydroxypropyl)-2-((1-(1-methylpiperidin-4-yl)-1H-indazol-5-yl)oxy)acetamide [Compound 71]	< 100 nM				> 20000 nM	101 to 1000 nM
N-(3-(3,4-dihydroisoquinolin-2(1H)-yl)-2-hydroxypropyl)-2-((1-(piperidin-4-yl)-1H-indazol-5-yl)oxy)acetamide [Compound 70]	< 100 nM				> 20000 nM	101 to 1000 nM
